Laboratory results as given in PubChem BioAssay AID330 (DTP/NCI, 2004).
Where “and” joins values, the source holds several entries; their conditions need not be identical. Equal entries are not always repeated. Toxic doses and inconclusive results are not listed. The calls were made as follows: active = survival T/C of 150% or more; inactive = T/C below 125% in these data. Peptide text beside a SMILES is read from it. * marks the point of attachment. Cbz = O=C(OCc1ccccc1)*; OtBu = CC(C)(C)O*

System: P388 leukemia ip, CD2F1 mice, survival T/C
Assay: NCI In Vivo Anticancer Drug Screen. Data for tumor model P388 Leukemia (intraperitoneal) in CD2F1 (CDF1) mice
Settings: endpoint: median survival time, higher = longer survival
Summary of the method: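 Mice carrying the transplanted tumor received test compound or vehicle. Survival was recorded in each group, and the value is the treated-group measurement divided by that of the vehicle-treated control group.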

[1] = dose: 60.0 mg/kg/injection, schedule: Q01DX005 (ip), vehicle: saline with Tween-80
[2] = dose: 120.0 mg/kg/injection, schedule: Q01DX005 (ip), vehicle: saline with Tween-80
[3] = dose: 50.0 mg/kg/injection, schedule: Q01DX009 (ip), vehicle: saline
[4] = dose: 100.0 mg/kg/injection, schedule: Q01DX009 (ip), vehicle: saline
[5] = dose: 200.0 mg/kg/injection, schedule: Q01DX009 (ip), vehicle: saline
[6] = dose: 100.0 mg/kg/injection, schedule: Q04DX003 (ip), vehicle: saline with Tween-80
[7] = dose: 200.0 mg/kg/injection, schedule: Q04DX003 (ip), vehicle: saline with Tween-80
[8] = dose: 400.0 mg/kg/injection, schedule: Q04DX003 (ip), vehicle: saline with Tween-80
[9] = dose: 50.0 mg/kg/injection, schedule: Q01DX009 (ip), vehicle: Klucel (hydroxypropylcellulose) (HPC)
[10] = dose: 100.0 mg/kg/injection, schedule: Q01DX009 (ip), vehicle: Klucel (hydroxypropylcellulose) (HPC)
[11] = dose: 50.0 mg/kg/injection, schedule: Q01DX009 (ip), vehicle: saline with Tween-80
[12] = dose: 240.0 mg/kg/injection, schedule: Q01DX005 (ip), vehicle: saline with Tween-80
[13] = dose: 50.0 mg/kg/injection, schedule: Q01DX005 (ip), vehicle: Klucel (hydroxypropylcellulose) (HPC)
[14] = dose: 100.0 mg/kg/injection, schedule: Q01DX005 (ip), vehicle: Klucel (hydroxypropylcellulose) (HPC)
[15] = dose: 200.0 mg/kg/injection, schedule: Q01DX005 (ip), vehicle: Klucel (hydroxypropylcellulose) (HPC)
[16] = dose: 100.0 mg/kg/injection, schedule: Q04DX002 (ip), vehicle: saline
[17] = dose: 200.0 mg/kg/injection, schedule: Q04DX002 (ip), vehicle: saline
[18] = dose: 400.0 mg/kg/injection, schedule: Q04DX002 (ip), vehicle: saline
[19] = dose: 50.0 mg/kg/injection, schedule: Q01DX005 (ip), vehicle: saline with Tween-80
[20] = dose: 100.0 mg/kg/injection, schedule: Q01DX005 (ip), vehicle: saline with Tween-80
[21] = dose: 200.0 mg/kg/injection, schedule: Q01DX005 (ip), vehicle: saline with Tween-80
[22] = dose: 100.0 mg/kg/injection, schedule: Q01DX009 (ip), vehicle: saline with Tween-80
[23] = dose: 200.0 mg/kg/injection, schedule: Q01DX009 (ip), vehicle: saline with Tween-80
[24] = dose: 25.0 mg/kg/injection, schedule: Q01DX005 (ip), vehicle: saline with Tween-80
[25] = dose: 7.5 mg/kg/injection, schedule: Q01DX005 (ip), vehicle: saline with Tween-80
[26] = dose: 15.0 mg/kg/injection, schedule: Q01DX005 (ip), vehicle: saline with Tween-80
[27] = dose: 30.0 mg/kg/injection, schedule: Q01DX005 (ip), vehicle: saline with Tween-80

Measured: T/C

C=C(C)C1NC(=O)C(C(O)c2cc(O)c(O)c(Cl)c2)N(C)C(=O)/C(=C/C(=O)O)NC(=O)/C(=C(\C)CC)NC(=O)C2C=CCN2C(=O)C(C(C)(O)CC)NC1=O (stereo not given)
inactive: dose: 0.65 mg/kg/injection, schedule: Q01DX005 (ip), vehicle: Klucel (hydroxypropylcellulose) (HPC) 88 % of control | dose: 1.25 mg/kg/injection, schedule: Q01DX005 (ip), vehicle: Klucel (hydroxypropylcellulose) (HPC) 95 % of control | dose: 2.5 mg/kg/injection, schedule: Q01DX005 (ip), vehicle: Klucel (hydroxypropylcellulose) (HPC) 91 % of control

COc1ccccc1C(Nc1nncs1)Nc1nncs1
inactive: [1] 106 % of control | [2] 97 % of control

NC(N)=NCCCC(N)C(=O)O (stereo not given)
inactive: [3] 119 % of control | [4] 100 % of control and 122 % of control | [5] 105 % of control and 110 % of control | dose: 400.0 mg/kg/injection, schedule: Q01DX009 (ip), vehicle: saline 100 % of control

COC(=O)C(CCC(=O)OC(C)(C)C)NC(=O)C(NC(=O)OCc1ccccc1)C(C)C (stereo not drawn) (Cbz-Val-Glu(OtBu)-OMe; configuration not given here)
inactive: [6] 110 % of control | [7] 120 % of control | [8] 90 % of control

Cc1nn(-c2ccccc2)c2c1C(c1ccc(Cl)cc1)C(C#N)=C(N)O2 (stereo not given)
inactive: [9] 94 % of control | [10] 96 % of control

CC1C(=O)OC(C)(C)C1(C)C (stereo not given)
inactive: [11] 101 % of control

COC(=O)CC1C(C)(C)C(=O)C2CC3=C4CC(=O)OC(c5ccoc5)C4(C)CCC3C1(C)C2=O (stereo not given)
inactive: [1] 97 % of control | [2] 92 % of control | [12] 89 % of control

Nc1ccc(O)c2c1C(=O)c1c(O)c(S(=O)(=O)O)cc(N)c1C2=O
inactive: dose: 25.0 mg/kg/injection, schedule: Q01DX005 (ip), vehicle: Klucel (hydroxypropylcellulose) (HPC) 108 % of control | [13] 102 % of control | [14] 105 % of control | [15] 102 % of control

Cn1nnc2c(Cl)nccc21
inactive: [16] 105 % of control | [17] 100 % of control | [18] 102 % of control

CS(=O)(=O)C(CCC(=O)c1ccc([N+](=O)[O-])cc1)C(=O)c1ccccc1 (stereo not given)
inactive: [13] 98 % of control | [14] 96 % of control | [15] 104 % of control

O=C1C=CC(=O)N1c1ccc(O)cc1
inactive: dose: 1.25 mg/kg/injection, schedule: Q01DX009 (ip), vehicle: saline sonified 95 % of control | dose: 2.5 mg/kg/injection, schedule: Q01DX009 (ip), vehicle: saline sonified 95 % of control

Cc1c(=O)n(C)c2ccccc2[n+]1[O-]
inactive: [1] 96 % of control | [2] 93 % of control | [12] 100 % of control

CC(=O)N1C=Cc2ccccc2C1C1NC=Cc2ccccc21 (stereo not given)
inactive: [19] 96 % of control | [20] 94 % of control | [21] 88 % of control

CC(=O)OC(C(=O)CCl)C(OC(C)=O)C(OC(C)=O)C(=O)CCl (stereo not given)
inactive: dose: 12.5 mg/kg/injection, schedule: Q01DX009 (ip), vehicle: distilled water + Tween-80 + alcohol 93 % of control | dose: 25.0 mg/kg/injection, schedule: Q01DX009 (ip), vehicle: distilled water + Tween-80 + alcohol 101 % of control | dose: 50.0 mg/kg/injection, schedule: Q01DX009 (ip), vehicle: distilled water + Tween-80 + alcohol 100 % of control

O=c1ccc2ccc(OC3OC(CO)C(O)C(O)C3O)cc2o1 (stereo not given)
inactive: dose: 1.0 mg/kg/injection, schedule: Q01DX009 (ip), vehicle: saline with Tween-80 106 % of control | dose: 2.0 mg/kg/injection, schedule: Q01DX009 (ip), vehicle: saline with Tween-80 100 % of control | dose: 4.0 mg/kg/injection, schedule: Q01DX009 (ip), vehicle: saline with Tween-80 104 % of control

CC(=O)CC(=O)Nc1cc(Cl)c(NC(=O)CC(C)=O)cc1Cl
inactive: [6] 100 % of control | [7] 104 % of control | [8] 95 % of control

C=[CH][Sn][CH2]CCC
inactive: [10] 112 % of control

CC(=O)Nn1cnc2c(SCc3ccccc3)ncnc21
inactive: [9] 100 % of control | [11] 100 % of control | [10] 100 % of control | [22] 95 % of control | [6] 95 % of control | dose: 200.0 mg/kg/injection, schedule: Q01DX009 (ip), vehicle: Klucel (hydroxypropylcellulose) (HPC) 100 % of control | [23] 122 % of control

O=Nc1c(=O)[nH]c(O)c2ccccc12
inactive: [24] 100 % of control | [19] 107 % of control | [20] 93 % of control

Cc1cc(NS(=O)(=O)c2ccc(N=Nc3cc(N=Nc4ccc(S(=O)(=O)Nc5cc(C)nc(C)n5)cc4)c4c(NC(=O)C(Cl)Cl)cccc4c3OC(=O)C(Cl)Cl)cc2)nc(C)n1 (tested in a mixture with another compound)
inactive: dose: 12.5 mg/kg/injection, schedule: Q01DX009 (ip), vehicle: saline with Tween-80 113 % of control | dose: 25.0 mg/kg/injection, schedule: Q01DX009 (ip), vehicle: saline with Tween-80 117 % of control | [11] 106 % of control [middle of 4 runs] | [3] 108 % of control [middle of 4 runs] | [22] 99 % of control and 105 % of control and 107 % of control | [4] 111 % of control and 115 % of control and 118 % of control | [23] 91 % of control and 95 % of control | [5] 99 % of control

COC(=O)C1=C(C(=O)OC)C2OC1c1cc3ccccc3cc12
inactive: [25] 113 % of control | [26] 113 % of control | [27] 108 % of control | [1] 97 % of control

COc1cc(O)c(O)c(C(C)(C)C)c1
inactive: dose: 3.75 mg/kg/injection, schedule: Q01DX005 (ip), vehicle: saline with Tween-80 103 % of control | [25] 105 % of control | [26] 108 % of control | [27] 116 % of control | [1] 107 % of control | [2] 95 % of control

OCC1CSCN1 (stereo not given)
inactive: dose: 50.0 mg/kg/injection, schedule: Q04DX002 (ip), vehicle: saline 93 % of control | [16] 99 % of control and 101 % of control | [17] 101 % of control and 120 % of control | [18] 101 % of control and 104 % of control

O=C(NCCCCCCCCCNC(=O)C12CC3CC(CC(C3)C1)C2)C12CC3CC(CC(C3)C1)C2
inactive: dose: 12.5 mg/kg/injection, schedule: Q01DX005 (ip), vehicle: saline with Tween-80 93 % of control | [24] 93 % of control | [19] 88 % of control | [21] 90 % of control

Cc1ccc(S(=O)(=O)OC2C(COCC(=O)O)OC3OC(C)(C)OC32)cc1 (stereo not given)
inactive: [6] 95 % of control | [7] 95 % of control | [8] 90 % of control
